The nature of data set [1]: discoloration / decomposition temperature (melting point measuring instrument). The data set is classed as physicochemical. The note with it: definite melting points could not be determined. From the text:
3. The definite melting points of the present compounds could not be determined in a melting point measuring instrument manufactured by Yanagimoto Co., Ltd. Their discoloration temperature ranges together with decomposition temperatures are as follows: […]

For data set [2], the system named is Glucodextranase, i.e. exo-type dextranase. Briefly: enzymatic hydrolysis with glucodextranase (exo-type dextranase). The data set is classed as biochemical. Particulars: 1% solution; FIG. 2. An excerpt: 10. Glucodextranase, i.e. exo-type dextranase, was allowed to act on the present compounds (1% solution), but they were not hydrolyzed at all as shown in FIG. 2.

This note sets out measurements from patent publication US5453369A, “Enzyme for producing novel cyclooisomaltooligosaccharides” (Kikkoman Corporation, priority 1992, dated 1995).

Regarding `O[C@@H]1[C@@H](O)[C@H]2OC[C@H]3O[C@H](OC[C@H]4O[C@H](OC[C@H]5O[C@H](OC[C@H]6O[C@H](OC[C@H]7O[C@H](OC[C@H]8O[C@H](OC[C@@H](O2)[C@H]1O)[C@H](O)[C@@H](O)[C@@H]8O)[C@H](O)[C@@H](O)[C@@H]7O)[C@H](O)[C@@H](O)[C@@H]6O)[C@H](O)[C@@H](O)[C@@H]5O)[C@H](O)[C@@H](O)[C@@H]4O)[C@H](O)[C@@H](O)[C@@H]3O` [Cycloisomaltoheptaose, cycloisomaltoheptaose], in data set [1], the “discoloration temperature ranges together with decomposition temperatures” value was 234-238 °C.

With `O[C@@H]1[C@@H](O)[C@H]2OC[C@H]3O[C@H](OC[C@H]4O[C@H](OC[C@H]5O[C@H](OC[C@H]6O[C@H](OC[C@H]7O[C@H](OC[C@H]8O[C@H](OC[C@H]9O[C@H](OC[C@H]%10O[C@H](OC[C@@H](O2)[C@H]1O)[C@H](O)[C@@H](O)[C@@H]%10O)[C@H](O)[C@@H](O)[C@@H]9O)[C@H](O)[C@@H](O)[C@@H]8O)[C@H](O)[C@@H](O)[C@@H]7O)[C@H](O)[C@@H](O)[C@@H]6O)[C@H](O)[C@@H](O)[C@@H]5O)[C@H](O)[C@@H](O)[C@@H]4O)[C@H](O)[C@@H](O)[C@@H]3O` [Cycloisomaltononaose, cycloisomaltononaose], in data set [1], the “discoloration temperature ranges together with decomposition temperatures” value is 239-242 °C.

Consider `O[C@@H]1[C@@H](O)[C@H]2OC[C@H]3O[C@H](OC[C@H]4O[C@H](OC[C@H]5O[C@H](OC[C@H]6O[C@H](OC[C@H]7O[C@H](OC[C@H]8O[C@H](OC[C@H]9O[C@H](OC[C@@H](O2)[C@H]1O)[C@H](O)[C@@H](O)[C@@H]9O)[C@H](O)[C@@H](O)[C@@H]8O)[C@H](O)[C@@H](O)[C@@H]7O)[C@H](O)[C@@H](O)[C@@H]6O)[C@H](O)[C@@H](O)[C@@H]5O)[C@H](O)[C@@H](O)[C@@H]4O)[C@H](O)[C@@H](O)[C@@H]3O` [Cycloisomaltooctaose, cycloisomaltooctaose], for which the “discoloration temperature ranges together with decomposition temperatures” value in data set [1] was 238-241 °C.

As for `OC[C@H]1O[C@H](OC[C@H]2O[C@H](OC[C@H]3O[C@H](OC[C@H]4O[C@H](OC[C@H]5O[C@H](OC[C@H]6O[C@H](OC[C@H]7OC(O)[C@H](O)[C@@H](O)[C@@H]7O)[C@H](O)[C@@H](O)[C@@H]6O)[C@H](O)[C@@H](O)[C@@H]5O)[C@H](O)[C@@H](O)[C@@H]4O)[C@H](O)[C@@H](O)[C@@H]3O)[C@H](O)[C@@H](O)[C@@H]2O)[C@H](O)[C@@H](O)[C@@H]1O` (some centres unmarked) [isomaltoheptaose], the hydrolysis by glucodextranase entry in data set [2] is “completely hydrolyzed”.

With `OC[C@H]1O[C@H](OC[C@H]2O[C@H](OC[C@H]3O[C@H](OC[C@H]4O[C@H](OC[C@H]5O[C@H](OC[C@H]6OC(O)[C@H](O)[C@@H](O)[C@@H]6O)[C@H](O)[C@@H](O)[C@@H]5O)[C@H](O)[C@@H](O)[C@@H]4O)[C@H](O)[C@@H](O)[C@@H]3O)[C@H](O)[C@@H](O)[C@@H]2O)[C@H](O)[C@@H](O)[C@@H]1O` (some centres unmarked) [isomaltohexaose], in data set [2], the hydrolysis by glucodextranase result is on record as “completely hydrolyzed”.
